Measurements from paper PMC13195669, “GPR3 Ligands Discovered through Combined Virtual and Conformational Biosensor-Based Screening” (Journal of the American Chemical Society, 2026).

Columns and labels:
[1] = biological target: T1, adenosine A2B receptor (A2BR) (Homo sapiens, UniProt P29275); assay: cAMP GloSensor 22F, agonist-stimulated A2BR; type: cell-based; settings: preincubation with 100 μM or 10 μM
T1 construct: expressed in transfected cells; host or cells: HEK293A, transient
T1 sequence (P29275 1-332): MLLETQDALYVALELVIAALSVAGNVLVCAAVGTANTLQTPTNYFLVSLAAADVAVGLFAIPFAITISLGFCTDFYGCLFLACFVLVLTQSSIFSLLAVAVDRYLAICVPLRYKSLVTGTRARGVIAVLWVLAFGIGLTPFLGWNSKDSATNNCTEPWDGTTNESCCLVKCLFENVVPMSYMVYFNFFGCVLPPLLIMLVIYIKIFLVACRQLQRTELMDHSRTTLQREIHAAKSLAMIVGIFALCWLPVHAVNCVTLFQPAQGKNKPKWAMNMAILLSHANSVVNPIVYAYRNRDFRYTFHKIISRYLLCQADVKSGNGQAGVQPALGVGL
Protocol: Next, we used the classical cAMP GloSensor technology to assess the target selectivity profile of 33. […] In addition, we tested the effects of 33 on cAMP changes mediated by agonist-stimulated GPCRs phylogenetically close to GPR3 and coupling to Gs or Gi/o proteins.
BRET-based GPCR conformational sensor experiments
Cells expressing the conformational GPCR biosensors were grown for 24 h (stable cells) or 48 h (transiently transfected cells) in white 96-well plates and washed with 100 µl of HBSS. After washing, cells were incubated for 2 minutes with a 1/1000 solution of the furimazine stock solution (Promega; cat. no. N1662). Three baseline BRET reads were recorded and averaged prior to the addition of serial dilutions of ligands or veh icle control and subsequent BRET reads. […] BRE T donor emission was quantified with a 470/80 nm monochromator. […] Experiments were carried out using a CLARIOstar plate reader.
FRET- and BRET-based measurements of cAMP levels and Gs dissociation/reassociation Transfected cells grown in black 96-well plates were washed twice with 100 µl of HBSS 48 h after transfection and incubated with HBSS. […] Three baseline FRET/BRET reads were recorded and averaged prior to the addition of serial dilutions of ligands or vehicle control and sub-sequent FRET/BRET reads. […] FRET donor emission was quantified with a 480/10 nm filter. […]
Luminescence measurement using the cAMP GloSensor™ 22F […]

[2] = tested on: GPR3 mutant (bulky tryptophan residues in extracellular loop 2); assay: GPR3 conformational biosensor with tryptophan insertions in extracellular loop 2; type: cell-based, human; settings: wildtype vs mutant biosensor; transiently transfected HEK293A
Excerpt: To develop a hypothesis for the cause of the significant loss in efficacy from VH1 to 33, we computationally predicted the binding poses of both molecules in GPR3 (Figure a). […] In contrast, the cyclopropyl ring of 33 is still buried in the receptor’s transmembrane core. […] We also challenged this binding model of 33 with another GPR3 biosensor variant which harbors the T^3.37A point mutation in transmembrane helix 3. According to an alternative predicted pose of 33 obtained with Boltz-2 (c.f., SI – Materials and Methods section), this mutation should hamper 33 binding to GPR3.
5 Proposed binding poses of VH1 and 33. […]
Cells expressing the conformational GPCR biosensors were grown for 24 h (stable cells) or 48 h (transiently transfected cells) in white 96-well plates and washed with 100 µl of HBSS. […] Three baseline BRET reads were recorded and averaged prior to the addition of serial dilutions of ligands or veh icle control and subsequent BRET reads. […] BRE T donor emission was quantified with a 470/80 nm monochromator. […] Experiments were carried out using a CLARIOstar plate reader.
FRET- and BRET-based measurements of cAMP levels and Gs dissociation/reassociation Transfected cells grown in black 96-well plates were washed twice with 100 µl of HBSS 48 h after transfection and incubated with HBSS. […] FRET donor emission was quantified with a 480/10 nm filter. […]

SMILES	effect on agonist-induced cAMP change mediated by A2BR [1]	effect of extracellular loop 2 tryptophan insertions on concentration-response [2]
N=c1n(Cc2ccccc2)c2ccccc2n1CC1CC1 [compound 33]	neither 100 μM nor 10 μM 33 significantly altered	not affected by these modifications
N=c1n(Cc2ccccc2)c2ccccc2n1CC(O)COc1ccc(Cl)cc1 (stereo not drawn) [compound 52]		right-shifted
